This note sets out measurements from patent publication US12239662B2, “Compositions for inhibiting anaerobic microorganisms” (LPOXY THERAPEUTICS, INC, priority 2020, dated 2025).

For series [1], the system named is Clostridioides difficile ATCC 43255. Particulars: for onset of action: compared between treatment groups; for cure rate: no recurrence over 14 days after inoculation; for survival: treatment study day 0 to day 4, followed 14 days after inoculation, 10 mice per group; for clinical severity and recovery: total clinical score and daily weights, compared to infection control group.
Text: Thirty C57BL/6 female mice (18-22 g) fitted with duodenal catheters externalized and fitted with access button ports were purchased from Charles River Laboratories and singly housed in a temperature and humidity-controlled room with a 12-hour light cycle. The mice were divided into 3 groups of 10. All procedures used in these experimental protocols were in compliance with the Animal Welfare Act, the Guide for the Care and Use of Laboratory Animals, and the Office of Laboratory Animal Welfare.
The mice were pretreated with an antibiotic cocktail in their drinking water for 8 consecutive days. This antibiotic cocktail was composed of 1% glucose, 500 mcg/mL kanamycin, 44 mcg/mL gentamicin, 1062.5 units per milliliter colistin, 269 mcg/mL metronidazole, 156 mcg/mL ciprofloxacin, 100 mcg/mL ampicillin, and 56 mcg/mL vancomycin. The antibiotic cocktail and drinking water was replaced every 2 to 3 days. Five days prior to infection the antibiotic water was removed and normal drinking water was provided to the animals. Three days prior to infection the animals received a single dose of clindamycin 10 mg per kilogram via oral administration in a volume of 10 mL per kilogram.
On study Day 0 mice were inoculated with the bacterial suspension of 5×10^5 CFU Clostridioides difficile ATCC 43255 via oral gavage. Eight hours after inoculation administration of vehicle, antibiotic control, and test article was initiated according to the following. The vehicle a.k.a. infection control group of 10 mice received 80 μL per hour 100% pure nitrogen gas via duodenal catheter. The infection control group of 10 mice received 50 mg/kg vancomycin via oral gavage once daily. […] Administration was continued from study day 0 to study day 4, a total of 5 days. The mice were followed for 14 days after inoculum recording daily weights and clinical observations. Animals that appeared severely moribund were euthanized. At the end of the study all animals were humanely euthanized.

The conditions of series [2]: up to the maximum bolus tested, 200 microliters every 6 hours (8 mL/kg per bolus; 32 mL/kg/day). Here is the method: In a separate experiment using the above conditions the tolerance of bolus injection of 100% oxygen gas was tested.

Where two headings read alike, the source gives them in different places.

Turning to `CN[C@H](CC(C)C)C(=O)N[C@H]1C(=O)N[C@@H](CC(N)=O)C(=O)N[C@H]2C(=O)N[C@H]3C(=O)N[C@H](C(=O)N[C@H](C(=O)O)c4cc(O)cc(O)c4-c4cc3ccc4O)[C@H](O)c3ccc(c(Cl)c3)Oc3cc2cc(c3O[C@@H]2O[C@H](CO)[C@@H](O)[C@H](O)[C@H]2O[C@H]2C[C@](C)(N)[C@H](O)[C@H](C)O2)Oc2ccc(cc2Cl)[C@H]1O` [vancomycin, reference compound], in series [1] (mouse CDI model), the onset of action entry is “more rapid onset of action”, the cure rate is on record as 30% and the survival is given as 100%.
Turning to `O=O` [EAT, oxygen], in series [2], the “adverse effects of bolus injection” value is “No adverse effects”. Besides, the “adverse effects due to gas infusion” value in series [1] (efficacy experiments, infusion 3.2 mL/kg/hr, 76.8 mL/kg/day via duodenal catheter) is “no adverse effects”. Further, in series [1] (mouse CDI model), the onset of action result was “slower onset of action”; the cure rate was determined as 100%; the “clinical severity and recovery” value is “mildly ill compared to the infection control group, recover rapidly”; the survival came out at 100%. For the same molecule, in series [1] (mouse CDI model, days 8-14, after treatment was complete), the “animals showing signs of infection in the 2nd week after inoculation and treatment (recurrence)” value is “no recurrent infections”. Moreover, the “clinical severity and recovery” value in series [1] (mouse CDI model, listed as Enteric aerobization therapy) is on record as “reduces the severity of disease, accelerates recovery”.
